Assays:
diet induced obese rats = assay: Anti-obese activity in diet induced obese rats (treatment after 8 weeks high fat diet); assay type: in vivo, Sprague-Dawley rats; conditions: 7 mg/kg per day oral, vs untreated control group
Procedure: Selected healthy Sprague-Dawley rats were randomly assigned for control or various treatment groups (n=6). All the animals allocated for the study were made obese through dietary intervention by feeding high fat diet ad libitum for 8 weeks. After 8 weeks, the treatment group of animals was given oral administration of 250 mg/kg of Piper betle 60% methanol extract per day in 10 mL of 0.5% CMC, using gastric tube for 8 week study duration. The control group of animals was given 10 ml/kg of 0.5% CMC. The animals of positive control group were given 7 mg/kg sibutramine per day in 10 mL of 0.5% CMC. Food and water consumptions were recorded daily, body weights were recorded weekly and fasting blood samples were collected before initiation, after 4th week and 8th week (termination) of the study.
Selected healthy Sprague-Dawley rats were randomly assigned to control or various treatment groups (n=6). All the animals allocated for the study were made obese through dietary intervention by feeding high fat diet ad libitum for 8 weeks. […] Food and water consumption were recorded daily, body weights were recorded weekly and fasting blood samples were collected before initiation, after 4th week and 8th week (termination) of the study.

[1] = system: diet induced obesity in rats; assay: Protective effect against diet induced obesity in rats (treatment simultaneous with high fat diet); assay type: in vivo, Sprague-Dawley rats; conditions: 7 mg/kg per day oral, 8 weeks, vs untreated control group
Procedure: Selected healthy Sprague-Dawley rats were randomly assigned to control or various treatment groups (n=6). All the animals allocated for protective phase of the study were on dietary intervention by feeding high fat diet ad libitum and the animals allocated to treatment groups were simultaneously given oral administration of 250 mg/kg Piper betle hydroalcohol extract per day in 10 mL of 0.5% CMC, using gastric tube for the entire 8 week study duration. The test animals of the control group were simultaneously given 10 ml/kg 0.5% CMC. The animals of positive control group were given 7 mg/kg sibutramine in 10 mL of 0.5% CMC. Food and water consumptions were recorded daily, body weights were recorded weekly and fasting blood samples were collected before initiation, after 4th week and 8th week (termination) of the study. […] Upon administration of Piper betle alcohol extract for a period of 60 days, the level of triglyceride in the obese rats was reduced by 33%. The levels of serum cholesterol and LDL were reduced by 22% and 23% respectively, whereas the level of HDL was increased by 11%.
Selected healthy Sprague-Dawley rats were randomly assigned to control or various treatment groups (n=6). […] Food and water consumption were recorded daily, body weights were recorded weekly and fasting blood samples were collected before initiation, after 4th week and 8th week (termination) of the study. […]

In the case of `CC(C)CC(N(C)C)C1(c2ccc(Cl)cc2)CCC1` (centres unmarked) [sibutramine], the “reduction in mean body weight gain” value (diet induced obese rats) is reported as ~87% and the “reduction (protection) in weight gain” value [1] is reported as 44.4%.

From patent US9301987B2, “Anti-adipogenic compositions containing Piper betle and Dolichos biflorus” (LAILA NUTRACEUTICALS, priority 2007, dated 2016)
